The numbers were not newly measured in US10392669B2, “Methods and systems for determination of an effective therapeutic regimen and drug discovery” (DNA-SEQ, INC., priority 2014, dated 2019), which cites them from elsewhere.

SMILES strings stand for the structures. Entries after “also recorded” stand apart in the source; their conditions may differ.

Series [1] has as its system catalytic cores of kinases. The settings on record: cancer patients, bracketed literature reference; for Activating Mutations: known activating mutations within the kinase catalytic core listed for the drug; for Resistant Mutations: known resistance mutations within the kinase catalytic core listed for the drug.
In the next series the target is ERBB2 T798I (Homo sapiens, UniProt P04626, T798I). The note with it: Gene ERBB2, Mutation T798I; full finding: Not reported to be in a before/after study, but does cause drug resistance.
The next series deals with kinase DFG motif. The settings on record: crystal structure library.

Regarding `O=C(c1ccc(F)c(F)c1Nc1ccc(I)cc1F)N1CC(O)([C@@H]2CCCCN2)C1` [Cobimetinib], in series [1], the “Activating Mutations” value was “Braf: V600 mutation [9]”. As to `C[C@@H](Oc1cc(-c2cnn(C3CCNCC3)c2)cnc1N)c1c(Cl)ccc(F)c1Cl` [Crizotinib], the “Activating Mutations” value in series [1] was “ALK: I117IN, R1275Q [10]”. As to `C#Cc1cccc(Nc2ncnc3cc(OCCOC)c(OCCOC)cc23)c1` [Erlotinib], the “Activating Mutations” value in series [1] was “EGFR: L858R [12]”. For the compound `COc1cc2ncnc(Nc3ccc(F)c(Cl)c3)c2cc1OCCCN1CCOCC1` [Gefitinib], in series [1], the “Activating Mutations” value is “EGFR: L858R, L861Q [14]”. For the compound `Cc1ccc(NC(=O)c2ccc(CN3CCN(C)CC3)cc2)cc1Nc1nccc(-c2cccnc2)n1` [Imatinib], in series [1], the “Resistant Mutations” value is “KIT: T670I; also recorded: ABL: T315I [17]”.

Consider `CS(=O)(=O)CCNCc1ccc(-c2ccc3ncnc(Nc4ccc(OCc5cccc(F)c5)c(Cl)c4)c3c2)o1` [Lapatinib], for which the Finding entry at ERBB2 T798I was “Not reported to be in a before/after”. For the same compound, in series [1], the “Resistant Mutations” value is “HER2: L755S [18]”. As to `COc1cc2nccc(Oc3ccc(NC(=O)NC4CC4)c(Cl)c3)c2cc1C(N)=O` [Lenvatinib], the “Activating Mutations” value in series [1] was “RET: C634W, M918T [19]”.

With `Cc1cn(-c2cc(NC(=O)c3ccc(C)c(Nc4nccc(-c5cccnc5)n4)c3)cc(C(F)(F)F)c2)cn1` [Nilotinib], the DFG conformation bound result with kinase DFG motif is “binds the DFG out conformation”. Besides, in series [1], the “Activating Mutations” value is “BCR/ABL: F317L [3]”. With `C=CC(=O)Nc1cc(Nc2nccc(-c3cn(C)c4ccccc34)n2)c(OC)cc1N(C)CCN(C)C` [Osimertinib], in series [1], the “Activating Mutations” value is “EGFR: T790M [20]”.

Take `CNC(=O)c1cc(Oc2ccc(NC(=O)Nc3ccc(Cl)c(C(F)(F)F)c3)cc2)ccn1` [Sorafenib]: in series [1], the “Activating Mutations” value was “PDGFRA: T674I [26]” and the “Resistant Mutations” value is recorded as “FIP1LI-PDGFRA: D842V”.
